Assay results reported in PubChem BioAssay AID179 (DTP/NCI, 2004).
Active and inactive are the calls of the source.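 Rule for the calls: active = compounds giving half or more protection of infected cells from virus-caused growth loss, again on retest; inactive = the rest.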

Test system: CEM cells HIV-1 protection, formazan growth assay
Assay: NCI AIDS Antiviral Assay
Conditions: for IC50: measured here: growth of uninfected CEM cells
In short: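 Soluble formazan readout of cell growth; CEM cells ± HIV-1; 5 drug concs. ≥50% protection → retest; ≥50% again = moderately active; reproducible 100% = confirmed active.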

| Compound | outcome | EC50 | IC50 |
| --- | --- | --- | --- |
| Nc1ccc(C(=O)N/C(=C\C=C\c2ccco2)c2nc3c4c(ccc3[nH]2)C(=O)c2ccccc2C4=O)cc1 | inactive |  |  |
| c1ccc([P+](Cc2ccco2)(c2ccccc2)c2ccccc2)cc1 |  | > 200 µM | 3.39 µM |
| O=C1Cn2c(cc(=O)c3ccccc32)O1 |  | > 67.6 µM | > 67.6 µM |
| COc1ccc(CCC2(C(OC)OC)NC(=O)NC2=O)cc1 (stereo not given) |  | > 200 µM | > 200 µM |
| Cc1ccc(C=NC23CC4CC(CC(C4)C2)C3)cc1 |  | > 257 µM | > 257 µM |
| O=C(/C(C=NC(=S)c1ccncc1)=C(/O)C1=CC=CCC1)c1ccccc1 | inactive |  |  |
| CCOC(=O)c1[nH]c2c(cc(C(=O)C(F)(F)F)c3ccccc32)c1C(F)(F)F |  | > 17.8 µM | > 17.8 µM |
| CN(C)c1ccc(/C=c2\sc3nc4ccccc4n3c2=O)cc1 |  | > 0.851 µM | > 0.851 µM |
| Cc1cn(C2CC(CCN(O)CC3OC(n4cc(C)c(=O)[nH]c4=O)CC3O[Si](C)(C)C(C)(C)C)C(CO[Si](C)(C)C(C)(C)C)O2)c(=O)[nH]c1=O (stereo not given) |  | > 200 µM | 11.5 µM |
| Cc1cc([N+](=O)[O-])ccc1N=NC(=O)NNc1ccc([N+](=O)[O-])cc1C |  | > 200 µM | 33.9 µM |
| O=C(Nc1ccc(Cl)cc1)/C(Cc1cccc[n+]1[O-])=N\Nc1ccc([N+](=O)[O-])cc1[N+](=O)[O-] |  | > 107 µM | > 107 µM |
| CSc1nc2c(c(=O)[nH]1)N=C(c1ccccc1)CC(c1ccccc1)N2 (stereo not given) | inactive |  |  |
| CCCCCCNC(=O)/C(=C/c1ccc(OC)cc1)NC(=O)c1ccccc1 |  | > 200 µM | 102 µM |
| Nc1cccc(N=Nc2c(S(=O)(=O)O)cc3cc(NC(=O)Nc4ccc5c(O)c(N=Nc6cccc(N)c6)c(S(=O)(=O)O)cc5c4)ccc3c2O)c1 |  | 13.5 µM | > 100 µM |
| CC(=O)[n+]1nc(-c2nc(N)nc(NC3C4CC5CC(C4)CC3C5)n2)oc1-c1ccc(Cl)cc1 (stereo not given) |  | > 11.2 µM | > 11.2 µM |
| N#C/C(=C\c1ccc(F)cc1)C(=O)c1ccccc1 |  | > 70.8 µM |  |
| C=CC(C)(C)N[C@@H](C(=O)N1CCC[C@H]1c1nc(-c2nc(C(=O)OCC=C(C)C)c(C)o2)c(C)o1)C(C)C |  | > 200 µM | 58.9 µM |
| O=Nn1ccccc1=Nc1ccccc1 |  | > 200 µM | 117 µM |
| CN(C)CN1C(=O)S/C(=C2\C(=O)N(CN(C)C)c3ccccc32)C1=O |  | > 200 µM | 38 µM |
| CC1=NN(C(=O)CC(=O)Nc2cccc(Cl)c2)C(=O)C1N=Nc1ccc(C(=O)O)cc1 (stereo not given) |  | > 200 µM | 52.5 µM |
| CCCCN(C(=O)NCCC)S(=O)(=O)c1ccc(Cl)cc1 | inactive |  |  |

| Compound | outcome | EC50 | IC50 |
| --- | --- | --- | --- |
| Cc1ncc([N+](=O)[O-])n1CCNC(=O)CCn1ccnc1[N+](=O)[O-] |  | > 200 µM | > 200 µM |
| C=C1C(OC(=O)C(O)C(c2ccccc2)N(C)C)C[C@H](OC(C)=O)[C@]2(C)C1C[C@@H]1CC(OC(C)=O)C(C)=C([C@@H](OC(C)=O)C2OC(C)=O)C1(C)C (stereo not given in full) | inactive |  |  |
| C(#Cc1ccccc1)SC1=C(c2ccccc2)S/C(=C(\SC#Cc2ccccc2)c2ccccc2)S1 |  | > 200 µM | > 200 µM |
| C[C@H]1C[C@H]2[C@@H]3CCC4=CC(=O)C=C[C@]4(C)C3=CC[C@]2(C)[C@@]1(O)C(=O)CO |  | 102 µM | 107 µM |
| c1cncc(-c2ncc3cccnc3n2)c1 |  | > 100 µM | > 100 µM |
| CC(C)C1=CC23CCC4C(C)(C(=O)O)CCCC4(C)C2CC1C1C(=O)N(c2ccccc2N2C(=O)C4C5CC6C7(C)CCCC(C)(C(=O)O)C7CCC6(C=C5C(C)C)C4C2=O)C(=O)C13 (stereo not given) |  | > 141 µM | 8.13 µM |
| Cc1cn2cc(-c3cccs3)nc2s1 |  | > 200 µM | 87.1 µM |
| Cc1ccc(C(=O)Oc2ccc(/C=C3\CCC/C(=C\c4ccc(OC(=O)c5ccc(C)cc5)cc4)C3=O)cc2)cc1 |  | > 100 µM | > 100 µM |
| CC(=O)Nc1c(C#N)c2n(c1C(=O)Nc1ccccc1)CCCC2 |  | > 200 µM | > 200 µM |
| NC(CCCC(N)P(=O)(O)O)C(=O)O (stereo not given) | inactive |  |  |
| CCC1(O)C(=O)OCc2c1cc1n(c2=O)Cc2cc3cc(OC)c(OC)cc3nc2-1 (stereo not given) |  | > 10 µM | 1.29 µM |
| Cc1c(CNc2ccc(Cl)c(Cl)c2Cl)cnc2nc(N)nc(N)c12 |  | > 2 µM | 0.347 µM |
| COCc1nc(C#N)c(N)o1 |  | > 200 µM | > 200 µM |
| O=C(c1ccccc1)N1C/C(=N\Nc2ccc(Cl)cc2)c2c([nH]c3ccccc23)C1 |  | > 9.12 µM | > 9.12 µM |
| CC(C(C(=O)O)S(=O)(=O)O)C(C(=O)O)S(=O)(=O)O (stereo not given) |  | > 100 µM | 20.4 µM |
| O=C(OC(CC[P+](c1ccccc1)(c1ccccc1)c1ccccc1)(C(=O)c1ccccc1)c1ccccc1)c1ccccc1 (stereo not given) |  | > 200 µM | 1.07 µM |
| CC1C[P+](c2ccccc2)(c2ccccc2)Cc2ccccc21 (stereo not given) |  | > 708 µM | 2.57 µM |
| CCOc1cnn(-c2ccccc2)c(=O)c1Cl |  | > 1000 µM | 437 µM |
| Clc1cc(Cl)cc(C=NC23CC4CC(CC(C4)C2)C3)c1 |  | > 200 µM | 44.7 µM |
| COc1ccc(Cc2c3cc(O)c(=O)cc-3ccn2C)cc1OC |  | > 15.8 µM | 8.13 µM |
